{
  "source": "patent US11155559B2",
  "about": "“Sulfonyl-substituted isoquinolines as inhibitors of RHO kinase and hERG potassium channel activity” (CHINA RESOURCES PHARMACEUTICAL HOLDINGS COMPANY LIMITED, priority 2017, dated 2021)",
  "key": {"hERG potassium channel": {"target": "hERG potassium channel (Homo sapiens, UniProt Q12809)", "sequence (Q12809 whole entry)": "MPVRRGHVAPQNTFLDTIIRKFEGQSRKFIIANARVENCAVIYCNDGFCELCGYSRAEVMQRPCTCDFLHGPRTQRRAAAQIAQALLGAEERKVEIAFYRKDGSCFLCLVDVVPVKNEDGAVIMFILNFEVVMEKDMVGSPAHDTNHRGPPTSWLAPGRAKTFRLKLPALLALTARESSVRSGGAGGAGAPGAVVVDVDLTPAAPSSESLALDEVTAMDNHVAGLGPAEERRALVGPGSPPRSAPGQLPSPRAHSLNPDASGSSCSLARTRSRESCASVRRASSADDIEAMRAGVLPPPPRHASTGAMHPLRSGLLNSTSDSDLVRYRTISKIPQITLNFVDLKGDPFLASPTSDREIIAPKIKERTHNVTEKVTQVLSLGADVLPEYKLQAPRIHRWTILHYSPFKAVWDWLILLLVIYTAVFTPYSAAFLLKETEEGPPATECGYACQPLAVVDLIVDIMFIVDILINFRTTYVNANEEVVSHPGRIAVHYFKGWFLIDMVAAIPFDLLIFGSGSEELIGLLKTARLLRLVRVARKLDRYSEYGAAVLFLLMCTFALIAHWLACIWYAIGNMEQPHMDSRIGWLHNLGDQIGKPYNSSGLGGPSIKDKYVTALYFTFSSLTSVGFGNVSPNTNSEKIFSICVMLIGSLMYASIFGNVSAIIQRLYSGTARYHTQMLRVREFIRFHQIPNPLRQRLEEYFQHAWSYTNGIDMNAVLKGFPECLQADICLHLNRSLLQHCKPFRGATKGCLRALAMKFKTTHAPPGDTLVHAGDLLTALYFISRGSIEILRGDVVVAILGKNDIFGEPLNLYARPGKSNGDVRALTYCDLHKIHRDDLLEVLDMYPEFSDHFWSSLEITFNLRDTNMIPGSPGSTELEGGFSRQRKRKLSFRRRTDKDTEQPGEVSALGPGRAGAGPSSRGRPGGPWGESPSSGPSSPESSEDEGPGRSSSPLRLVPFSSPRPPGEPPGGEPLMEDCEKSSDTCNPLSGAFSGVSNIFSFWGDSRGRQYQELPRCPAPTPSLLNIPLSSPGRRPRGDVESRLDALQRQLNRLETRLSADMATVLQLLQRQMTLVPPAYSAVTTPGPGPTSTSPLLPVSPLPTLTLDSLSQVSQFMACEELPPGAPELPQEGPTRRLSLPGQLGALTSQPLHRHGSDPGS", "test": "hERG experiment (QPatch HTX whole-cell, CHO-hERG cells)", "format": "cell-based", "conditions": "room temperature, tested at 0.24 to 30.00 μM, read-out: hERG inhibitory activity (IC50)", "description": "The cells stably expressing hERG potassium channel used in the experiment were derived from CHO-hERE of Aviva Biosciences, CHO-hERG was cultured under 5% CO2 at 37° C. hERGQPatch^HTX experiments were performed at room temperature. QPatch AssaySoftware 5.2 (Sophion Bioscience) software was used to establish whole-cell protocols, voltage stimulation protocols and compound detection protocols. First, the voltage stimulation was repeated for 30 times, this section was used as the baseline area for subsequent analysis, then 5 μL extracellular fluid was added and repeated three times. The effect concentrations of each compound were added one after the other, repeating three times by the addition of 5 μL volume. The cells were incubated at each test concentration for at least 5 mins. During the entire recording process, each indicator must meet the data analysis acceptance criteria, if the criterion is not met, the cell will not be counted in the analysis range, and the compound will be tested again, the above recording process is automatically operated by Qpatch analysis software. […] In each complete current record, based on the percentage of peak current in the negative control group, the percentage inhibition of the effect concentration of each compound can be calculated. […]"}, "[1]": {"tested_on": "bleomycin-induced rat pulmonary fibrosis", "test": "Pharmacodynamics in rats: bleomycin-induced unilateral (left lung) pulmonary fibrosis model", "format": "in vivo, SD rats", "conditions": "for Percentage of pulmonary fibrosis score vs. model group (FIG. 2): Ashcraft score, boundary at 3 (3 or below vs. 4 or above)", "description": "Animals in each group started to be administered orally by gavage on the 8th day of modeling for a total of 14 days. All animals were euthanized the next day after the last administration, and the left lung was taken, and the same amount of formalin solution was infused into the lungs, the lung fibrosis score was analyzed by weighing and lung pathology.\nMasson Trichrome staining was used for pathological evaluation of pulmonary fibrosis lesion area, pulmonary fibrosis pathology score, and fibrosis grade parameters for left lung pulmonary fibrosis lesions. […] (FIG. 2)."}, "[2]": {"test": "Evaluation of pharmacokinetics in rats", "format": "in vivo", "conditions": "rat, plasma, male SD rats, single administration, groups 2 mg/kg intravenous and 10 mg/kg oral gavage, route for this parameter not stated", "description": "Evaluation of Pharmacokinetics in Rats Male SD rats were used as test animals, after a single administration, the blood concentrations of the compounds were measured and the pharmacokinetic behavior was evaluated. Six healthy adult male SD rats (7-10 weeks of age, purchased from Shanghai Slack Experimental Animal Co., Ltd.) were randomly divided into two groups of three animals each, and one group was administered the test compound intravenously at 2 mg/kg, the other group was administered orally by gavage the test compound at 10 mg/kg. The vehicle in the intravenous administration group and the gastric administration group was both 10% DMSO+18% HP-β-CD+72% physiological saline. Blood samples were collected from the animals in the intravenous group at 0.0833, 0.25, 0.5, 1, 2, 4, 8, and 24 hours after the administration, and blood samples were collected from the animals in the gavage group at 0.25, 0.5, 1, 2, 4, 6, 8 and 24 hours after the administration. LCMS-MS method was used to determine the plasma drug concentration. WinNonlin™ version 6.3 (Pharsight Mountain View, Calif.) pharmacokinetic software was used to calculate the relevant pharmacokinetic parameters by non-compartment model logarithmic trapezoid method."}, "ROCK protein kinase": {"target": "ROCK protein kinase", "test": "Evaluation of ROCK protein kinase inhibitory activity in vitro (33P-ATP filter-binding)", "format": "biochemical", "conditions": "1 nM ROCK, 20 μM Long S6 Kinase substrate peptide, room temperature, two hours", "description": "Evaluation of ROCK Protein Kinase Inhibitory Activity In Vitro\nExperimental object: detecting the inhibitory IC50 value of ROCK protein kinase of the compounds.\nAssay buffer solution: 20 mM Hepes (pH 7.5), 10 mM MgCl2, 1 mM EGTA, 0.02% Brij35, 0.02 mg/ml BSA, 0.1 mM Na3VO4, 2 mM DTT, 1% DMSO\nROCK protein kinase substrate Long S6 Kinase substrate peptide was added to the freshly prepared buffer solution at a concentration of 20 μM. Then 1 nM ROCK protein kinase was added and stirred evenly. […] After pre-incubating at room temperature for 20 minutes, ^33P-ATP (radiation intensity 10 μCi/μL) was added to initiate the reaction and the reaction was carried out at room temperature for two hours. […] The Filter-Binding method was used to detect radiation intensity.\nThe protein kinase inhibitory activity of the compound was expressed as the residual protein kinase activity of a relatively blank substrate (DMSO alone). IC50 values and curves were calculated using Prism software package (GraphPad Software, san Diego Calif., USA)."}, "[3]": {"conditions": "positive drugs: nintedanib 100 and 30 mg/kg/d-qd, pirfenidone 50 and 15 mg/kg/d-bid, oral gavage, 14 days, p<0.05"}},
  "data": [
    {"molecule": "CC1C2NCCC2CN1S(=O)(=O)c1cccc2cncc(F)c12", "note": "(stereo not shown) [embodiment 6]", "values": [
      {"measurement": "IC50", "setting": "hERG potassium channel", "value": "> 30000", "unit": "nM"},
      {"measurement": "Percentage of pulmonary fibrosis score vs. model group (FIG. 2)", "setting": "[1]; oral gavage, 14 days", "value": "significant statistical difference compared with the model group"},
      {"measurement": "Lowest dose effective in inhibiting pulmonary fibrosis", "setting": "[1]; administered continuously for two weeks", "value": "≤ 1", "unit": "mg/kg BID"},
      {"measurement": "Pulmonary fibrosis-improving effect compared with reference drugs", "setting": "[1]; compared with nintedanib, pirfenidone and fasudil", "value": "comparable to that of nintedanib, pirfenidone, and fasudil at lower doses"},
      {"measurement": "Pulmonary fibrosis Ashcraft score vs. model group (FIG. 1)", "setting": "[1]; oral, once a day at 3 mg/kg, 14 days, consistent with the same dose twice daily", "value": "significant effect on inhibiting pulmonary fibrosis"},
      {"measurement": "Pulmonary fibrosis Ashcraft score vs. model group (FIG. 1)", "setting": "[1]; oral, twice a day at three doses (1, 3, 10 mg/kg/d-bid), 14 consecutive days, p<0.001", "value": "significant inhibition of pulmonary fibrosis"},
      {"measurement": "clearance", "setting": "[2]; read-out: Clearance rate (Cl)", "value": 43.8, "unit": "mL/min/kg"},
      {"measurement": "half-life", "setting": "[2]; read-out: Half-life period (T1/2) (converted)", "value": 1.12, "unit": "h"},
      {"measurement": "IC50", "setting": "ROCK protein kinase", "value": 12, "unit": "nM"}
    ]},
    {"molecule": "CC1C2NCCC2CN1S(=O)(=O)c1cccc2c(O)ncc(F)c12", "note": "(stereo not shown) [embodiment 10]", "values": [
      {"measurement": "IC50", "setting": "ROCK protein kinase", "value": 783, "unit": "nM"}
    ]},
    {"molecule": "Cc1cncc2cccc(S(=O)(=O)N3CC4CCNC4C3C)c12", "note": "(stereo not shown) [embodiment 8]", "values": [
      {"measurement": "IC50", "setting": "ROCK protein kinase", "value": 18, "unit": "nM"}
    ]},
    {"molecule": "Cc1cncc2cccc(S(=O)(=O)N3C[C@@H]4CCN[C@@H]4C3)c12", "note": "[Embodiment 38 (WO2015/165341), reference compound]", "values": [
      {"measurement": "IC50", "setting": "hERG potassium channel", "value": 4600, "unit": "nM"}
    ]},
    {"molecule": "COC(=O)c1ccc2c(c1)NC(=O)/C2=C(\\Nc1ccc(N(C)C(=O)CN2CCN(C)CC2)cc1)c1ccccc1", "note": "[nintedanib, reference compound]", "values": [
      {"measurement": "Percentage of pulmonary fibrosis score vs. model group (FIG. 2)", "setting": "[1]; oral gavage, 14 days", "value": "significant differences compared with the model group"},
      {"measurement": "Pulmonary fibrosis Ashcraft score vs. model group (FIG. 1)", "setting": "[1]; [3]", "value": "significantly improved the degree of pulmonary fibrosis"}
    ]},
    {"molecule": "CC1C2NCCC2CN1S(=O)(=O)c1cccc2cnccc12", "note": "(stereo not shown) [embodiment 7-1]", "values": [
      {"measurement": "IC50", "setting": "ROCK protein kinase", "value": 63, "unit": "nM"}
    ]},
    {"molecule": "CC1C2NCCC2CN1S(=O)(=O)c1cccc2cncc(F)c12", "note": "(stereo not shown) [embodiment 6-1]", "values": [
      {"measurement": "IC50", "setting": "ROCK protein kinase", "value": 65, "unit": "nM"}
    ]},
    {"molecule": "O=S(=O)(c1cccc2cncc(Cl)c12)N1CC2CCNC2C12CC2", "note": "(stereo not shown) [embodiment 2]", "values": [
      {"measurement": "IC50", "setting": "ROCK protein kinase", "value": 32, "unit": "nM"}
    ]},
    {"molecule": "O=S(=O)(c1cccc2cncc(F)c12)N1CC2CCNC2C12CC2", "note": "(stereo not shown) [embodiment 3]", "values": [
      {"measurement": "IC50", "setting": "ROCK protein kinase", "value": 93, "unit": "nM"}
    ]},
    {"molecule": "CC1C2NCCC2CN1S(=O)(=O)c1cccc2cnccc12", "note": "(stereo not shown) [embodiment 7-2]", "values": [
      {"measurement": "IC50", "setting": "ROCK protein kinase", "value": 15, "unit": "nM"}
    ]},
    {"molecule": "CC1C2NCCC2CN1S(=O)(=O)c1cccc2cncc(F)c12", "note": "(stereo not shown) [embodiment 6-2]", "values": [
      {"measurement": "IC50", "setting": "ROCK protein kinase", "value": 8, "unit": "nM"}
    ]},
    {"molecule": "O=S(=O)(c1cccc2cnccc12)N1CC2CCNC2C12CC2", "note": "(stereo not shown) [embodiment 1]", "values": [
      {"measurement": "IC50", "setting": "ROCK protein kinase", "value": 20, "unit": "nM"}
    ]},
    {"molecule": "O=S(=O)(c1cccc2cnccc12)N1CCCNCC1", "note": "[Fasudil, reference compound]", "values": [
      {"measurement": "Pulmonary fibrosis Ashcraft score vs. model group (FIG. 1)", "setting": "[1]; oral, once a day at 25 mg/kg, 14 consecutive days, p<0.001", "value": "achieved the same effect as the positive drug in inhibiting pulmonary fibrosis"}
    ]},
    {"molecule": "CC1C2NCCC2CN1S(=O)(=O)c1cccc2cnccc12", "note": "(stereo not shown) [embodiment 7]", "values": [
      {"measurement": "IC50", "setting": "ROCK protein kinase", "value": 28, "unit": "nM"}
    ]},
    {"molecule": "Cc1ccc(=O)n(-c2ccccc2)c1", "note": "[pirfenidone, reference compound]", "values": [
      {"measurement": "Percentage of pulmonary fibrosis score vs. model group (FIG. 2)", "setting": "[1]; oral gavage, 14 days", "value": "significant differences compared with the model group"},
      {"measurement": "Pulmonary fibrosis Ashcraft score vs. model group (FIG. 1)", "setting": "[1]; [3]", "value": "significantly improved the degree of pulmonary fibrosis"}
    ]}
  ]
}
